What was measured:
Escherichia coli [1] = assay: Antimicrobial activity against Escherichia coli 25922 assessed as absence bacterial growth measured after 18 to 24 hrs incubation by NCCLS method; format: functional; conditions: time 18-24 hrs
Escherichia coli [2] = assay: Antimicrobial activity against Escherichia coli K88 assessed as absence bacterial growth measured after 18 to 24 hrs incubation by NCCLS method; format: functional; conditions: time 18-24 hrs
Salmonella typhimurium [3] = assay: Antimicrobial activity against Salmonella typhimurium 14028 assessed as absence bacterial growth measured after 18 to 24 hrs incubation by NCCLS method; format: functional, Salmonella enterica subsp. enterica serovar Typhimurium; conditions: Salmonella enterica, time 18-24 hrs
[4] = Antimicrobial activity against Salmonella pullorum C7913 assessed as absence bacterial growth measured after 18 to 24 hrs incubation by NCCLS method; format: functional, Salmonella enterica subsp. enterica serovar Pullorum; conditions: Salmonella enterica, time 18-24 hrs
Pseudomonas aeruginosa [5] = assay: Antimicrobial activity against Pseudomonas aeruginosa 27853 assessed as absence bacterial growth measured after 18 to 24 hrs incubation by NCCLS method; format: functional; conditions: time 18-24 hrs
Acinetobacter baumannii [6] = assay: Antimicrobial activity against Acinetobacter baumannii 1.6769 assessed as absence bacterial growth measured after 18 to 24 hrs incubation by NCCLS method; format: functional; conditions: time 18-24 hrs
Enterococcus faecalis [7] = assay: Antimicrobial activity against Enterococcus faecalis 29212 assessed as absence bacterial growth measured after 18 to 24 hrs incubation by NCCLS method; format: functional; conditions: time 18-24 hrs
Listeria monocytogenes [8] = assay: Antimicrobial activity against Listeria monocytogenes 1.10753 assessed as absence bacterial growth measured after 18 to 24 hrs incubation by NCCLS method; format: functional; conditions: time 18-24 hrs
Bacillus cereus [9] = assay: Antimicrobial activity against Bacillus cereus 1.932 assessed as absence bacterial growth measured after 18 to 24 hrs incubation by NCCLS method; format: functional; conditions: time 18-24 hrs
Staphylococcus aureus [10] = assay: Antimicrobial activity against Staphylococcus aureus 29213 assessed as absence bacterial growth measured after 18 to 24 hrs incubation by NCCLS method; format: functional; conditions: time 18-24 hrs
Staphylococcus aureus [11] = assay: Antimicrobial activity against Methicillin-resistant Staphylococcus aureus 43300 assessed as absence bacterial growth measured after 18 to 24 hrs incubation by NCCLS method; format: functional; conditions: time 18-24 hrs
[12] = test system: Staphylococcus epidermidis; assay: Antimicrobial activity against Staphylococcus epidermidis 12228 assessed as absence bacterial growth measured after 18 to 24 hrs incubation by NCCLS method; format: functional; conditions: time 18-24 hrs
Staphylococcus aureus [13] = assay: Antimicrobial activity against Staphylococcus aureus 29213 assessed as absence bacterial growth measured after 18 to 24 hrs incubation by NCCLS m; format: functional; conditions: time 18-24 hrs
Escherichia coli [14] = assay: Antimicrobial activity against Escherichia coli 25922 assessed as bacterial killing measured after 16 hrs incubation; format: functional
Escherichia coli [15] = assay: Antimicrobial activity against Escherichia coli K88 assessed as bacterial killing measured after 16 hrs incubation; format: functional
Salmonella typhimurium [16] = assay: Antimicrobial activity against Salmonella typhimurium 14028 assessed as bacterial killing measured after 16 hrs incubation; format: functional, Salmonella enterica subsp. enterica serovar Typhimurium; conditions: Salmonella enterica
Salmonella typhimurium [17] = assay: Antimicrobial activity against Salmonella typhimurium C7731 assessed as bacterial killing measured after 16 hrs incubation; format: functional, Salmonella enterica subsp. enterica serovar Typhimurium; conditions: Salmonella enterica
[18] = Antimicrobial activity against Salmonella pullorum C7913 assessed as bacterial killing measured after 16 hrs incubation; format: functional, Salmonella enterica subsp. enterica serovar Pullorum; conditions: Salmonella enterica
Pseudomonas aeruginosa [19] = assay: Antimicrobial activity against Pseudomonas aeruginosa 27853 assessed as bacterial killing measured after 16 hrs incubation; format: functional
Acinetobacter baumannii [20] = assay: Antimicrobial activity against Acinetobacter baumannii 1.6769 assessed as bacterial killing measured after 16 hrs incubation; format: functional
Enterococcus faecalis [21] = assay: Antimicrobial activity against Enterococcus faecalis 29212 assessed as bacterial killing measured after 16 hrs incubation; format: functional
Listeria monocytogenes [22] = assay: Antimicrobial activity against Listeria monocytogenes 1.10753 assessed as bacterial killing measured after 16 hrs incubation; format: functional
Bacillus cereus [23] = assay: Antimicrobial activity against Bacillus cereus 1.932 assessed as bacterial killing measured after 16 hrs incubation; format: functional
Staphylococcus aureus [24] = assay: Antimicrobial activity against Staphylococcus aureus 29213 assessed as bacterial killing measured after 16 hrs incubation; format: functional
Staphylococcus aureus [25] = assay: Antimicrobial activity against Methicillin-resistant Staphylococcus aureus 43300 assessed as bacterial killing measured after 16 hrs incubation; format: functional
[26] = test system: Staphylococcus epidermidis; assay: Antimicrobial activity against Staphylococcus epidermidis 12228 assessed as bacterial killing measured after 16 hrs incubation; format: functional
Staphylococcus aureus [27] = assay: Antimicrobial activity against Staphylococcus aureus 25923 assessed as bacterial killing measured after 16 hrs incubation; format: functional
Salmonella typhimurium [28] = assay: Antimicrobial activity against Salmonella typhimurium C7731 assessed as absence bacterial growth measured after 18 to 24 hrs incubation by NCCLS method; format: functional, Salmonella enterica subsp. enterica serovar Typhimurium; conditions: Salmonella enterica, time 18-24 hrs
Escherichia coli [29] = assay: Antimicrobial activity against Escherichia coli 25922 assessed as absence bacterial growth measured after 18 to 24 hrs incubation in presence of 50% serum by NCCLS method; format: functional; conditions: time 18-24 hrs
Escherichia coli [30] = assay: Antimicrobial activity against Escherichia coli 25922 assessed as absence bacterial growth measured after 18 to 24 hrs incubation in presence of 25% serum by NCCLS method; format: functional; conditions: time 18-24 hrs
Escherichia coli [31] = assay: Antimicrobial activity against Escherichia coli 25922 assessed as absence bacterial growth measured after 18 to 24 hrs incubation in presence of 12.5% serum by NCCLS method; format: functional; conditions: time 18-24 hrs
[32] = Hemolytic activity in human RBC at effective concentration at 128 uM measured after 1 hr by microplate reader relative to control; format: toxicity, cell-based, Erythrocyte; conditions: human red blood cells (erythrocytes), read-out: Activity
Escherichia coli [33] = assay: Antimicrobial activity against Escherichia coli 25922 assessed as absence bacterial growth measured after 18 to 24 hrs incubation in presence of NaCl by NCCLS method; format: functional; conditions: time 18-24 hrs
Escherichia coli [34] = assay: Antimicrobial activity against Escherichia coli 25922 assessed as absence bacterial growth measured after 18 to 24 hrs incubation in presence of KCl by NCCLS method; format: functional; conditions: time 18-24 hrs
Escherichia coli [35] = assay: Antimicrobial activity against Escherichia coli 25922 assessed as absence bacterial growth measured after 18 to 24 hrs incubation in presence of NH4Cl by NCCLS method; format: functional; conditions: time 18-24 hrs
Escherichia coli [36] = assay: Antimicrobial activity against Escherichia coli 25922 assessed as absence bacterial growth measured after 18 to 24 hrs incubation in presence of MgCl2 by NCCLS method; format: functional; conditions: time 18-24 hrs
Escherichia coli [37] = assay: Antimicrobial activity against Escherichia coli 25922 assessed as absence bacterial growth measured after 18 to 24 hrs incubation in presence of ZnCl2 by NCCLS method; format: functional; conditions: time 18-24 hrs
Escherichia coli [38] = assay: Antimicrobial activity against Escherichia coli 25922 assessed as absence bacterial growth measured after 18 to 24 hrs incubation in presence of FeCl3 by NCCLS method; format: functional; conditions: time 18-24 hrs
Erythrocyte = assay: Hemolytic activity in human RBC at effective concentration measured after 1 hr by microplate reader analysis; format: toxicity, cell-based
[39] = Cytotoxicity against mouse RAW264.7 cells assessed as cell survival rate measured after 8 hrs by MTT assay; format: toxicity, cell-based
[40] = Cytotoxicity against human HEK-293T cells assessed as cell survival rate measured after 8 hrs by MTT assay; format: toxicity, cell-based
[41] = Cytotoxicity against porcine IPEC-J2 cells assessed as cell survival rate measured after 8 hrs by MTT assay; format: toxicity, cell-based, Sus scrofa; conditions: pig

In the case of H-IKLWLKGGKLWLKGGKLWLKG-NH2, the MIC (Escherichia coli [1]) is reported as 4 µM, the MIC (Escherichia coli [2]) is reported as 2 µM and the MIC (Salmonella typhimurium [3]) is reported as 8 µM. It also gave an MIC [4] of 2 µM, an MIC (Pseudomonas aeruginosa [5]) of 8 µM and an MIC (Acinetobacter baumannii [6]) of 8 µM. For the same substance, the MIC (Enterococcus faecalis [7]) was > 32 µM, the MIC (Listeria monocytogenes [8]) was > 32 µM and the MIC (Bacillus cereus [9]) was > 32 µM. For the same substance, the MIC (Staphylococcus aureus [10]) was > 32 µM, the MIC (Staphylococcus aureus [11]) was > 32 µM and the MIC [12] was > 32 µM. The MIC (Staphylococcus aureus [13]) was > 32 µM, the MBC (Escherichia coli [14]) was 8 µM and the MBC (Escherichia coli [15]) was 2 µM. For the same substance, the MBC (Salmonella typhimurium [16]) was 8 µM, the MBC (Salmonella typhimurium [17]) was 32 µM and the MBC [18] was 2 µM. The MBC (Pseudomonas aeruginosa [19]) was 8 µM, the MBC (Acinetobacter baumannii [20]) was 8 µM and the MBC (Enterococcus faecalis [21]) was > 32 µM. The MBC (Listeria monocytogenes [22]) was > 32 µM, the MBC (Bacillus cereus [23]) was > 32 µM and the MBC (Staphylococcus aureus [24]) was > 32 µM. The MBC (Staphylococcus aureus [25]) was > 32 µM, the MBC [26] was > 32 µM and the MBC (Staphylococcus aureus [27]) was > 32 µM. The MIC (Salmonella typhimurium [28]) was 8 µM, the MIC (Escherichia coli [29]) was > 32 µM and the MIC (Escherichia coli [30]) was > 32 µM. The MIC (Escherichia coli [31]) was > 32 µM, the hemolysis at 1 h, 128 µM [32] was < 10% and the MIC (Escherichia coli [33]) was > 32 µM. The MIC (Escherichia coli [34]) was 4 µM, the MIC (Escherichia coli [35]) was 8 µM and the MIC (Escherichia coli [36]) was > 32 µM. The MIC (Escherichia coli [37]) was 16 µM, the MIC (Escherichia coli [38]) was 16 µM and the HC10 (Erythrocyte) was > 128 µM. The IC50 at 8 h [39] was > 64 µM, the IC50 at 8 h [40] was > 64 µM and the IC50 at 8 h [41] was 31.4 µM.

With H-LKLWLKGGKLWLKGGKLWLKG-NH2 the MIC (Escherichia coli [1]) was 4 µM, the MIC (Escherichia coli [2]) was 1 µM and the MIC (Salmonella typhimurium [3]) was > 32 µM. For the same substance, the MIC [4] was 2 µM, the MIC (Pseudomonas aeruginosa [5]) was 32 µM and the MIC (Acinetobacter baumannii [6]) was 16 µM. For the same substance, the MIC (Enterococcus faecalis [7]) was > 32 µM, the MIC (Listeria monocytogenes [8]) was > 32 µM and the MIC (Bacillus cereus [9]) was > 32 µM. For the same substance, the MIC (Staphylococcus aureus [10]) was > 32 µM, the MIC (Staphylococcus aureus [11]) was > 32 µM and the MIC [12] was > 32 µM. For the same substance, the MIC (Staphylococcus aureus [13]) was > 32 µM, the MBC (Escherichia coli [14]) was 16 µM and the MBC (Escherichia coli [15]) was 1 µM. The MBC (Salmonella typhimurium [16]) was > 32 µM, the MBC (Salmonella typhimurium [17]) was > 32 µM and the MBC [18] was 2 µM. The MBC (Pseudomonas aeruginosa [19]) was 32 µM, the MBC (Acinetobacter baumannii [20]) was 16 µM and the MBC (Enterococcus faecalis [21]) was > 32 µM. For the same substance, the MBC (Listeria monocytogenes [22]) was > 32 µM, the MBC (Bacillus cereus [23]) was > 32 µM and the MBC (Staphylococcus aureus [24]) was > 32 µM. For the same substance, the MBC (Staphylococcus aureus [25]) was > 32 µM, the MBC [26] was > 32 µM and the MBC (Staphylococcus aureus [27]) was > 32 µM. For the same substance, the MIC (Salmonella typhimurium [28]) was > 32 µM, the MIC (Escherichia coli [29]) was > 32 µM and the MIC (Escherichia coli [30]) was > 32 µM. For the same substance, the MIC (Escherichia coli [31]) was 32 µM, the hemolysis at 1 h, 128 µM [32] was < 10% and the MIC (Escherichia coli [33]) was > 32 µM. The MIC (Escherichia coli [34]) was 8 µM, the MIC (Escherichia coli [35]) was 8 µM and the MIC (Escherichia coli [36]) was > 32 µM. For the same substance, the MIC (Escherichia coli [37]) was 8 µM, the MIC (Escherichia coli [38]) was 8 µM and the HC10 (Erythrocyte) was > 128 µM. The IC50 at 8 h [39] was > 64 µM, the IC50 at 8 h [40] was > 64 µM and the IC50 at 8 h [41] was 33.4 µM.
